Values of other authors in paper PMC7587962, “Evaluation of Cytotoxicity and α-Glucosidase Inhibitory Activity of Amide and Polyamino-Derivatives of Lupane Triterpenoids” (Molecules, 2020).

Legend:
TK-10 = test system: TK-10; set-up: method as in PMID 25405285; conditions: standard drugs used by NCI as control; cited from earlier work
DU-145 = test system: DU-145; set-up: method as in PMID 25405285; conditions: standard drugs used by NCI as control; cited from earlier work
SN12C = test system: SN12C; set-up: method as in PMID 25405285; conditions: standard drugs used by NCI as control; cited from earlier work
SK-MEL-28 = test system: SK-MEL-28; set-up: method as in PMID 25405285; conditions: standard drugs used by NCI as control; cited from earlier work
HL-60(TB) = conditions: standard drugs used by NCI as control; cited from earlier work
HCC-2998 = test system: HCC-2998; set-up: method as in PMID 25405285; conditions: standard drugs used by NCI as control; cited from earlier work
HCT-116 = test system: HCT-116; set-up: method as in PMID 25405285; conditions: standard drugs used by NCI as control; cited from earlier work
OVCAR-3 = test system: OVCAR-3; set-up: method as in PMID 25405285; conditions: standard drugs used by NCI as control; cited from earlier work
K-562 = test system: K-562; set-up: method as in PMID 25405285; conditions: standard drugs used by NCI as control; cited from earlier work
RXF 393 = test system: RXF 393; set-up: method as in PMID 25405285; conditions: standard drugs used by NCI as control; cited from earlier work
LOX IMVI = test system: LOX IMVI; set-up: method as in PMID 25405285; conditions: standard drugs used by NCI as control; cited from earlier work
SW-620 = test system: SW-620; set-up: method as in PMID 25405285; conditions: standard drugs used by NCI as control; cited from earlier work
NCI-H226 = test system: NCI-H226; set-up: method as in PMID 25405285; conditions: standard drugs used by NCI as control; cited from earlier work
NCI/ADR-RES = test system: NCI/ADR-RES; set-up: method as in PMID 25405285; conditions: standard drugs used by NCI as control; cited from earlier work
MALME-3M = test system: MALME-3M; set-up: method as in PMID 25405285; conditions: standard drugs used by NCI as control; cited from earlier work
IGROV1 = test system: IGROV1; set-up: method as in PMID 25405285; conditions: standard drugs used by NCI as control; cited from earlier work
786-0 = test system: 786-0; set-up: method as in PMID 25405285; conditions: standard drugs used by NCI as control; cited from earlier work
HCT-15 = test system: HCT-15; set-up: method as in PMID 25405285; conditions: standard drugs used by NCI as control; cited from earlier work
A549/ATCC = test system: A549/ATCC; set-up: method as in PMID 25405285; conditions: standard drugs used by NCI as control; cited from earlier work
SF-539 = test system: SF-539; set-up: method as in PMID 25405285; conditions: standard drugs used by NCI as control; cited from earlier work
HT29 = test system: HT29; set-up: method as in PMID 25405285; conditions: standard drugs used by NCI as control; cited from earlier work
NCI-H522 = test system: NCI-H522; set-up: method as in PMID 25405285; conditions: standard drugs used by NCI as control; cited from earlier work
MDA-MB-231/ATCC = test system: MDA-MB-231/ATCC; set-up: method as in PMID 25405285; conditions: MDA-MB-31/ATCC; standard drugs used by NCI as control; cited from earlier work
SK-OV-3 = test system: SK-OV-3; set-up: method as in PMID 25405285; conditions: standard drugs used by NCI as control; cited from earlier work
CAKI-1 = test system: CAKI-1; set-up: method as in PMID 25405285; conditions: standard drugs used by NCI as control; cited from earlier work
U251 = test system: U251; set-up: method as in PMID 25405285; conditions: standard drugs used by NCI as control; cited from earlier work
NCI-H23 = test system: NCI-H23; set-up: method as in PMID 25405285; conditions: standard drugs used by NCI as control; cited from earlier work
SK-MEL-5 = test system: SK-MEL-5; set-up: method as in PMID 25405285; conditions: standard drugs used by NCI as control; cited from earlier work
CCRF-CEM = test system: CCRF-CEM; set-up: method as in PMID 25405285; conditions: standard drugs used by NCI as control; cited from earlier work
HS 578T = test system: HS 578T; set-up: method as in PMID 25405285; conditions: standard drugs used by NCI as control; cited from earlier work
HOP-92 = test system: HOP-92; set-up: method as in PMID 25405285; conditions: standard drugs used by NCI as control; cited from earlier work
PC-3 = test system: PC-3; set-up: method as in PMID 25405285; conditions: standard drugs used by NCI as control; cited from earlier work
M14 = test system: M14; set-up: method as in PMID 25405285; conditions: standard drugs used by NCI as control; cited from earlier work
KM12 = test system: KM12; set-up: method as in PMID 25405285; conditions: standard drugs used by NCI as control; cited from earlier work
OVCAR-5 = test system: OVCAR-5; set-up: method as in PMID 25405285; conditions: standard drugs used by NCI as control; cited from earlier work
SF-268 = test system: SF-268; set-up: method as in PMID 25405285; conditions: standard drugs used by NCI as control; cited from earlier work
SK-MEL-2 = test system: SK-MEL-2; set-up: method as in PMID 25405285; conditions: standard drugs used by NCI as control; cited from earlier work
UACC-62 = test system: UACC-62; set-up: method as in PMID 25405285; conditions: standard drugs used by NCI as control; cited from earlier work
BT-549 = test system: BT-549; set-up: method as in PMID 25405285; conditions: standard drugs used by NCI as control; cited from earlier work
MCF7 = test system: MCF7; set-up: method as in PMID 25405285; conditions: standard drugs used by NCI as control; cited from earlier work
MOLT-4 = test system: MOLT-4; set-up: method as in PMID 25405285; conditions: standard drugs used by NCI as control; cited from earlier work
MDA-MB-435 = test system: MDA-MB-435; set-up: method as in PMID 25405285; conditions: standard drugs used by NCI as control; cited from earlier work
OVCAR-4 = test system: OVCAR-4; set-up: method as in PMID 25405285; conditions: standard drugs used by NCI as control; cited from earlier work
HOP-62 = test system: HOP-62; set-up: method as in PMID 25405285; conditions: standard drugs used by NCI as control; cited from earlier work
UO-31 = test system: UO-31; set-up: method as in PMID 25405285; conditions: standard drugs used by NCI as control; cited from earlier work
COLO 205 = test system: COLO 205; set-up: method as in PMID 25405285; conditions: standard drugs used by NCI as control; cited from earlier work
SNB-75 = test system: SNB-75; set-up: method as in PMID 25405285; conditions: standard drugs used by NCI as control; cited from earlier work
A498 = test system: A498; set-up: method as in PMID 25405285; conditions: standard drugs used by NCI as control; cited from earlier work
RPMI-8226 = test system: RPMI-8226; set-up: method as in PMID 25405285; conditions: standard drugs used by NCI as control; cited from earlier work
NCI-H460 = test system: NCI-H460; set-up: method as in PMID 25405285; conditions: standard drugs used by NCI as control; cited from earlier work
ACHN = test system: ACHN; set-up: method as in PMID 25405285; conditions: standard drugs used by NCI as control; cited from earlier work
OVCAR-8 = test system: OVCAR-8; set-up: method as in PMID 25405285; conditions: standard drugs used by NCI as control; cited from earlier work
T-47D = test system: T-47D; set-up: method as in PMID 25405285; conditions: standard drugs used by NCI as control; cited from earlier work
UACC-257 = test system: UACC-257; set-up: method as in PMID 25405285; conditions: standard drugs used by NCI as control; cited from earlier work
SNB-19 = test system: SNB-19; set-up: method as in PMID 25405285; conditions: standard drugs used by NCI as control; cited from earlier work

O=c1[nH]cc(F)c(=O)[nH]1 [Compound 5-FU, 5-fluorouracil]
GI50 (TK-10): 1120 nM | GI50 (DU-145): 360 nM | GI50 (SN12C): 490 nM | GI50 (SK-MEL-28): 1030 nM | GI50 (HL-60(TB)): 2300 nM | GI50 (HCC-2998): 50 nM | GI50 (HCT-116): 220 nM | GI50 (OVCAR-3): 10 nM | GI50 (K-562): 3580 nM | GI50 (RXF 393): 2610 nM | GI50 (LOX IMVI): 240 nM | GI50 (SW-620): 920 nM | GI50 (NCI-H226): 54700 nM | GI50 (NCI/ADR-RES): 310 nM | GI50 (MALME-3M): 50 nM | GI50 (IGROV1): 1220 nM | GI50 (786-0): 720 nM | GI50 (HCT-15): 110 nM | GI50 (A549/ATCC): 180 nM | GI50 (SF-539): 60 nM | GI50 (HT29): 170 nM | GI50 (NCI-H522): 7270 nM | GI50 (MDA-MB-231/ATCC): 6600 nM | GI50 (SK-OV-3): 21800 nM | GI50 (CAKI-1): 70 nM | GI50 (U251): 920 nM | GI50 (NCI-H23): 330 nM | GI50 (SK-MEL-5): 460 nM | GI50 (CCRF-CEM): 9970 nM | GI50 (HS 578T): 9770 nM | GI50 (HOP-92): 77900 nM | GI50 (PC-3): 2360 nM | GI50 (M14): 980 nM | GI50 (KM12): 210 nM | GI50 (OVCAR-5): 10900 nM | GI50 (SF-268): 1620 nM | GI50 (SK-MEL-2): 56700 nM | GI50 (UACC-62): 520 nM | GI50 (BT-549): 10600 nM | GI50 (MCF7): 70 nM | GI50 (MOLT-4): 350 nM | GI50 (MDA-MB-435): 70 nM | GI50 (OVCAR-4): 4430 nM | GI50 (HOP-62): 390 nM | GI50 (UO-31): 1420 nM | GI50 (COLO 205): 150 nM | GI50 (SNB-75): 78700 nM | GI50 (A498): 350 nM | GI50 (RPMI-8226): 40 nM | GI50 (NCI-H460): 50 nM | GI50 (ACHN): 270 nM | GI50 (OVCAR-8): 1740 nM | GI50 (T-47D): 8120 nM | GI50 (UACC-257): 3550 nM | GI50 (SNB-19): 3810 nM
